The values that follow are results of earlier work, collected in US6344433B1, “Long-acting disinfectant and its preparation method” (priority 1999, dated 2002).

For this series the following is noted: crystal powder.

Consider `Oc1cc(Cl)ccc1Oc1ccc(Cl)cc1Cl` [HD244, 2,4,4′-trichloro-2′-hydroxy diphenyl ether], for which the solubility in water result is given as “hardly soluble in water”.
